The source of these data is publication PMC3258025 (Molecular Cancer Therapeutics, 2010).

For series [1], the target named is T1, OCT1 (Homo sapiens, UniProt O15245).
T1 sequence (O15245 1-554): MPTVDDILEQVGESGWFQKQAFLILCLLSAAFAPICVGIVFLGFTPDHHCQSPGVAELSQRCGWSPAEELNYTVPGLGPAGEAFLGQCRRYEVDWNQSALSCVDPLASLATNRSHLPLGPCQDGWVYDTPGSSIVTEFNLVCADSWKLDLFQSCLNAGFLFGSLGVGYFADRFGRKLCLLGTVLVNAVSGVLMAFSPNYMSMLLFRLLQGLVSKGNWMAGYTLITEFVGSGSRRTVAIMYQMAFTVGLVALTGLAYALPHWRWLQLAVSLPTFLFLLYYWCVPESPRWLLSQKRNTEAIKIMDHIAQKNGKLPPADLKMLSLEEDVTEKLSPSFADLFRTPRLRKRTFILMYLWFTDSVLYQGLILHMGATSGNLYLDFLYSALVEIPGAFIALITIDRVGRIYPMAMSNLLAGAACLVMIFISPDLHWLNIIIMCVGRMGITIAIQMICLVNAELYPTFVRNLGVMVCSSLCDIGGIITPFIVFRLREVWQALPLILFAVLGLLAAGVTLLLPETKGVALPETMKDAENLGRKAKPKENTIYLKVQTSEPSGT
Particulars: 10 μmol/L, 30 minutes; picoplatin in PB-Cl, monoaqua and diaqua complexes in PB-SO4.

Series [2] relates to lung cancer cell lines (A549, H460, H838, and H1703). The series is described as follows: MTT cytotoxicity, summary over the four lung cancer cell lines. Particulars: cimetidine 3 mmol/L, 4-hour exposure. In kind it is cell-based, human.
Another series deals with HEK293 cells. In words: MTT cytotoxicity of the OCT inhibitors themselves. Format: cell-based, human. Particulars: same experimental conditions as picoplatin MTT assay; data not shown.
Series [3] has as its target T1, OCT1. In words: Platinum-DNA adduct formation in HEK-hOCT1 cells. The following applies: disopyramide 150 μmol/L, P < 0.001. In kind it is cell-based.
A further series relates to HEK-hOCT1 cells. In words: MTT cytotoxicity assay in OCT1-transfected HEK293 cells. Format: cell-based, human. Particulars: disopyramide 150 μmol/L. Background: Formazan colour is commonly taken as a measure of viable cells.
For another series, the target named is T2, OCT3 (Homo sapiens, UniProt O75751).
T2 sequence (O75751 1-556): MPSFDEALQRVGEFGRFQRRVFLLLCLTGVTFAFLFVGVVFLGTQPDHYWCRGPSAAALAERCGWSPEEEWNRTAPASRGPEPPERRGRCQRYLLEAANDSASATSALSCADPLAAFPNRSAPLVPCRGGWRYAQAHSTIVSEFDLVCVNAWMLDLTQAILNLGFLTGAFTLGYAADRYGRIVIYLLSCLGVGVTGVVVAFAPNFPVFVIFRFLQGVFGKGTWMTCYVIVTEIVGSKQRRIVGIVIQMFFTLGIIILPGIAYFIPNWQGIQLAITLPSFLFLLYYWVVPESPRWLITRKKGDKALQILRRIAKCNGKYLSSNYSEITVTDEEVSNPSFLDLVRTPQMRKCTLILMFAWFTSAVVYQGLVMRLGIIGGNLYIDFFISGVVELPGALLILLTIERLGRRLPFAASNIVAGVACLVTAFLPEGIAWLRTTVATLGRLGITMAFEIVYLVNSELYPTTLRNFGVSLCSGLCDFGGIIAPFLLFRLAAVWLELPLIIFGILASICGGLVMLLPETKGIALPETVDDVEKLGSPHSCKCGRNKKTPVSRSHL
The following applies: corticosterone 10 μmol/L, P < 0.001.

SMILES strings stand for the structures. Bounds are passed on as bounds.

As for `Cc1cccc[n+]1[Pt-2]([NH3+])([OH2+])[Cl]` (centres unmarked) [monoaqua complex of picoplatin, [Pt(NH3)(2-Pic)(H2O)(Cl)]+], the “Preference of platinum uptake in OCT1-expressing cells over the corresponding EV cells” value on OCT1 [1] is reported as “equal additional preference in OCT1-expressing cells”.
In the case of `N.N.[Cl][Pt][Cl]` [Cisplatin], the “Change in IC50 values in the presence of cimetidine” value in series [2] is recorded as “no significant change in the IC50 values”.
For the compound `CC(C)N(CCC(C(N)=O)(c1ccccc1)c1ccccn1)C(C)C` (centres unmarked) [disopyramide], in the series on HEK293 cells, the “Concentration up to which the inhibitor itself did not exhibit any cytotoxicity” value was more than 400 µM. Moreover, at OCT1 [3], the “Effect of OCT1 inhibitor on platinum-DNA adduct formation in HEK-hOCT1 cells” value is on record as “inhibitable”. Besides, the “Increase of picoplatin IC50 by coincubation of OCT1 inhibitor” value with HEK-hOCT1 cells was 5.9 fold.
For the compound `N.N.O=C([O-])C1(C(=O)[O-])CCC1.[Pt+2]` [Carboplatin], the “Change in IC50 values in the presence of cimetidine” value in series [2] is reported as “no significant change in the IC50 values”.
For the compound `CN/C(=N/CCSCc1nc[nH]c1C)NC#N` [cimetidine], in the series on HEK293 cells, the “Concentration up to which the inhibitor itself did not exhibit any cytotoxicity” value is more than 5000 µM.
With `C[C@]12C[C@H](O)[C@H]3[C@@H](CCC4=CC(=O)CC[C@@]43C)[C@@H]1CC[C@@H]2C(=O)CO` [corticosterone], at OCT3, the “Effect of OCT3 inhibitor on picoplatin-DNA adduct level in HEK-hOCT3 cells” value is recorded as “completely inhibited”.
